We go through 34 compounds from patent US20160002247A1, “8-SUBSTITUTED IMIDAZOPYRIMIDINONE DERIVATIVE HAVING AUTOTAXIN INHIBITORY ACTIVITY” (THE UNIVERSITY OF TOKYO, priority 2013, published 2016).

SMILES strings stand for the structures. Bounds are passed on as bounds.

One assay concerns the target T1, Human autotaxin enzyme (Homo sapiens, UniProt Q13822).
T1 construct: purchased R&D System
Nature of the assay: Evaluation of autotaxin inhibitor, Method B (Test Example 2): TG-mTMP fluorescence. In kind it is biochemical. Particulars: Assay Method B (Test Example 2), human autotaxin; read-out: Inhibitory Activity (autotaxin enzyme inhibitory activity, IC50 class). An outline of the steps:
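Human autotaxin in Tris-HCl pH 7.5 buffer with NaCl, MgCl2 and 0.1% BSA was reacted with TG-mTMP (0.5 μM solution added) and test compound for 2 hours at room temperature.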
The IC50 is the concentration that gives 50% inhibition. Regarding `CCCCCn1c(-c2ccc(N3CCOCC3)cc2)cc(=O)n2cc(-c3ccc(Cl)cc3)nc12` [Compound 421], the half-maximal inhibitory concentration (IC50) is 10 to 100 nM.
`CCCCCn1c(-c2ccc(N)cc2)cc(=O)n2cc(-c3ccc(Cl)cc3)nc12` [Compound 422]: the 50% inhibitory concentration (IC50) was 10 to 100 nM.
On the same count and under the same terms, the result for `CCCCCn1c(/C=C/COC)cc(=O)n2cc(-c3ccc(Cl)cc3)nc12` [Compound 423] reads 10 to 100 nM; that for `CCCCCn1c(-c2cnc(N)cn2)cc(=O)n2cc(-c3ccc(Cl)cc3)nc12` [Compound 424], < 10 nM.
The same measure, in the same setting: the same measure for `CCCCCn1c(-n2ccccc2=O)cc(=O)n2cc(-c3ccc(Cl)cc3)nc12` [Compound 426]: < 10 nM.

Another assay concerns the target T2, Mouse autotaxin enzyme (Mus musculus, UniProt Q9R1E6).
T2 construct: purchased R&D System
Description: Evaluation of autotaxin inhibitor, Method A (Test Example 1): TG-mTMP fluorescence. The format is biochemical. Particulars: Assay Method: Method A (Test Example 1); read-out: Inhibitory Activity (Enzyme Inhibitory Activity, IC50). The procedure:
(Method A) Evaluation of Autotaxin Inhibitor
Solution A containing 25 mM Tris-HCl buffer (pH7.5), 100 mM NaCl, 5 mM MgCl2 and 0.1% BSA was prepared. Mouse autotaxin enzyme (purchased from R&D System) was diluted with Solution A, and 5 μL of which was added to a solution of test compound in DMSO. Furthermore, 5 μl of 0.5 μM TG-mTMP in Solution A was added and allowed to react at room temperature for 2 hours. 5 μl of 150 mM EDTA in Solution A was added to quench the reaction, and a fluorescent dye TokyoGreen, which was produced by the reaction, was detected. The fluorescence was detected using ViewLux (PerkinElmer, Inc.) with an excitation wavelength of 480 nm and a fluorescence wavelength of 540 nm.
The percent inhibition of the test compound was calculated by assuming the sample with no test compound as 0% inhibition and the sample with no enzyme as 100% inhibition, and the percent inhibitions at different concentrations of the test compound were plotted to obtain a concentration-dependent curve.
As for `Cc1cc(=O)n2cc(-c3ccc(Cl)cc3)nc2n1C` [Compound 4], the IC50 fell in the range of 100 to 1000 nM.
With `CCn1c(C)cc(=O)n2cc(-c3ccc(Cl)cc3)nc12` [Compound 5], the IC50 is 10 to 100 nM.
The same measure, in the same setting: the same measure for `CCCn1c(C)cc(=O)n2cc(-c3ccc(Cl)cc3)nc12` [Compound 6]: 10 to 100 nM; for `CCCCCCCn1c(C)cc(=O)n2cc(-c3ccc(Cl)cc3)nc12` [Compound 9]: 10 to 100 nM; for `CCCCCCCCn1c(C)cc(=O)n2cc(-c3ccc(Cl)cc3)nc12` [Compound 10]: 10 to 100 nM.
Consider `CCCCCCCCCn1c(C)cc(=O)n2cc(-c3ccc(Cl)cc3)nc12` [Compound 11], for which the IC50 lay within 100 to 1000 nM.
Same read-out and setting: the same measure for `CCCCCCCCCCn1c(C)cc(=O)n2cc(-c3ccc(Cl)cc3)nc12` [Compound 12]: 100 to 1000 nM; for `Cc1cc(=O)n2cc(-c3ccc(Cl)cc3)nc2n1C1CCCCC1` [Compound 14]: 10 to 100 nM.
The same measure, in the same setting: the same measure for `C=CCn1c(C)cc(=O)n2cc(-c3ccc(Cl)cc3)nc12` [Compound 15]: 10 to 100 nM.
Same read-out and setting: the same measure for `C#CCn1c(C)cc(=O)n2cc(-c3ccc(Cl)cc3)nc12` [Compound 16]: 10 to 100 nM.
`CCCCCn1c(C)cc(=O)n2cc(-c3ccc(F)cc3)nc12` [Compound 17]: the IC50 was in the range of 10 to 100 nM.
The same measure, in the same setting: the result for `CCCCCn1c(C)cc(=O)n2cc(-c3ccc(C)cc3)nc12` [Compound 19] reads 10 to 100 nM.
On the same count and under the same terms, the result for `COC(=O)Cn1c(C)cc(=O)n2cc(-c3ccc(Cl)cc3)nc12` [Compound 21] reads 10 to 100 nM; that for `Cc1cc(=O)n2cc(-c3ccc(Cl)cc3)nc2n1CC(=O)OCc1ccccc1` [Compound 22], 10 to 100 nM.
On the same count and under the same terms, the result for `Cc1cc(=O)n2cc(-c3ccc(Cl)cc3)nc2n1CC(=O)OC(C)(C)C` [Compound 23] reads 10 to 100 nM.
As to `CCNC(=O)Cn1c(C)cc(=O)n2cc(-c3ccc(Cl)cc3)nc12` [Compound 24], the half-maximal inhibitory concentration (IC50) lay within 100 to 1000 nM.
The same measure, in the same setting: the same measure for `CCN(C)C(=O)Cn1c(C)cc(=O)n2cc(-c3ccc(Cl)cc3)nc12` [Compound 25]: 100 to 1000 nM; for `COCCOCCOCCn1c(C)cc(=O)n2cc(-c3ccc(Cl)cc3)nc12` [Compound 27]: > 1000 nM.
Take `CCOC(=O)Cn1c(C)cc(=O)n2cc(-c3ccc(F)cc3)nc12` [Compound 30]: the IC50 was in the range of 10 to 100 nM.
In the case of `CCOC(=O)Cn1c(C)cc(=O)n2cc(-c3ccc(Br)cc3)nc12` [Compound 31], the half-inhibitory concentration (IC50) was in the range of 10 to 100 nM.
Same read-out and setting: the same measure for `CCOC(=O)Cn1c(C)cc(=O)n2cc(-c3ccc(OC)cc3)nc12` [Compound 32]: 10 to 100 nM.
The same measure, in the same setting: the same measure for `CCOC(=O)Cn1c(C)cc(=O)n2cc(-c3cccc(Br)c3)nc12` [Compound 33]: > 1000 nM.
For `CCOC(=O)Cn1c(C)cc(=O)n2cc(-c3ccc(Cl)c(Cl)c3)nc12` [Compound 34], the IC50 lay in the range of 10 to 100 nM.
On the same count and under the same terms, the same measure for `CCOC(=O)Cn1c(C)cc(=O)n2cc(-c3ccccc3)nc12` [Compound 35]: 10 to 100 nM; for `CCOC(=O)Cn1c(C)cc(=O)n2cc(-c3ccc([N+](=O)[O-])cc3)nc12` [Compound 36]: 10 to 100 nM.
On to `CCOC(=O)Cn1c(C)cc(=O)n2cc(-c3cccc([N+](=O)[O-])c3)nc12` [Compound 37], for which the IC50 was 100 to 1000 nM.
On the same count and under the same terms, the result for `CCOC(=O)Cn1c(C)cc(=O)n2cc(-c3ccc(N)cc3)nc12` [Compound 38] reads > 1000 nM.
With `CCOC(=O)Cn1c(C)cc(=O)n2cc(-c3cccc(N)c3)nc12` [Compound 39], the half-maximal inhibitory concentration (IC50) was > 1000 nM.
The same measure, in the same setting: the same measure for `CCOC(=O)Cn1c(C)cc(=O)n2cc(-c3ccc(I)cc3)nc12` [Compound 40]: 10 to 100 nM.
